# “Also recorded” adds a separate entry of the source.
# Columns and labels:
# Male Rj: NMRI mice = experiment: Formalin paw test (late phase) in the mouse; type: in vivo
# Experimental: The method described herein detects analgesic/anti-inflammatory activity, generally used to test compounds for pain relief, in particular diabetic neuropathy or nociceptive neuropathy. See Wheeler-Aceto, et al. (1991) Psychopharmacology 104: 35-44.
# Mice were given an intraplantar injection of 5% formalin (25 μl) into the posterior left paw. This treatment induces paw licking in control animals. Mice were briefly observed at 1 minute intervals between 15 and 50 minutes after the injection of formalin and the number of occasions that the mice were observed licking the injected paw was recorded. There were 10 mice per group and the test was performed “blind.”
# The experiment included 11 groups. Data was analyzed by comparing treated groups with vehicle control using unpaired Mann-Whitney U tests.
# Gabapentin (100 mg/kg i.p.) administered under the same experimental conditions, was used as reference substance. The experiment included several groups. Data was analyzed by comparing treated groups with vehicle control using unpaired Mann-Whitney U tests.
# Male CD-1 mice [1] = experiment: Chung (SNL) neuropathic pain study in mice; type: in vivo, mouse; details: mice, i.p., SNL
# Description: Male CD-1 mice (25-35 g, Charles River) were used for all studies. Mice were housed in groups of five in Plexiglas chambers with food and water available ad libitum. All animals were maintained on a 12 hr light/dark cycle (lights on at 7:00 AM) in a temperature- and humidity-controlled animal colony. The health status of the animals used in this study was examined on arrival. Only animals in good health were acclimatized to laboratory conditions and used in the study. The acclimation period to the vivarium was a minimum of 7 days. All animal experiments were performed under an approved protocol in accordance with institutional guidelines and in accordance with the Guide for the Care and Use of Laboratory Animals as adopted and promulgated by the National Institutes of Health.
# NTP has provided adequate amounts of NTP-2014 and NTP-2026 along with detailed instructions for preparing injection solutions. Gabapentin (Gallipot, St. Paul, Minn.) was dissolved in physiological saline. Injections were made using a 1-mL syringe with a 30-gauge needle at a volume of 10 ml/kg body weight. Animal body weights were measured prior to surgery and then on the morning of Day 7 (post-SNL testing). For i.p. drug administration, each mouse was firmly grasped by the nape of the neck and the tail was tucked between the last two fingers and palm of the technician's hand. The back of the mouse iwasarched slightly backwards exposing the abdominal region. The needle was inserted through the skin and abdominal musculature into the peritoneal cavity just off of the midline. Mice are immediately returned to the testing cage until behavioral testing.
# NTP2026 (56, 100 and 180 mg/kg, i.p.); NTP 2014 (32, 56 and 100 mg/kg, i.p.); Gabapentin (100 mg/kg, i.p.); Vehicle Control (10% TPGS in benzoate buffer, i.p.).
# SNL surgeries were performed based on the procedures described for rats (Kim and Chung, 1992) and modified for mice (Wang et al., 2001). Anesthesia was maintained with 0.5% halothane in O2 and body temperature was maintained using a heated water blanket. After surgical preparation of the mice, a 1-cm paraspinal incision was made at the level L4-S2. The L5 and L6 spinal nerves were exposed and tightly ligated using a 4-0 silk suture. The ligation was made distal to the dorsal root ganglion but before the fibers joined the sciatic nerve. The incisions were then closed, and animals are allowed to recover. […] Mechanical thresholds were determined by measuring the paw withdrawal threshold to probing with a series of calibrated von Frey filaments as described below.
# Non-noxious sensory thresholds of the mice were determined by paw withdrawal […] to probing with a series of calibrated (0.02-2.34 gm on a logarithmic scale) von Frey filaments (“up and down” method) according to Chaplan et al. (1994) and analyzed using a Dixon (1980) nonparametric test. Results are expressed as the mean withdrawal thresholds. Baseline latencies/thresholds were determined prior to surgery, on the morning of Day 7, and then between 20-60 minutes post dosing with the test drugs. The post-drug time corresponds to the time of maximal activity for these compounds in the tail-flick assay.
# male Sprague Dawley rats = experiment: Taxol-induced peripheral neuropathy (rat), mechanical allodynia (von Frey); type: in vivo; details: gabapentin 100 mg/kg
# Description: In this study, an animal model of Taxol-induced sensory neuropathy was employed to evaluate the effects of the sponsor's test compounds, for response to tactile sensitivity using von Frey test of mechanical allodynia. […] Therefore, Taxol-induced mechanical allodynia was employed as the measured behavioral endpoint.
# The test substance was homogenized and dispersed using a mortar and a pestle in 0.2% hydroxypropylmethylcellulose (HPMC) in physiological saline, which served as the vehicle. Test articles were administered intraperitoneally in dose volumes of 10 mL/kg body weight. Preparations were made freshly for each day of administration.
# Prior to test article NTP-2024 and vehicle control group administration, rats were pretreated at 30 minutes and again at 10 minutes prior to test article administration with a general metabolic inhibitor, piperonyl butoxide (150 mg/kg i.p.) in DMSO, at a volume of 1 mL/kg.
# The reference article, Gabapentin, was formulated in saline to a concentration of 100 mg/mL and delivered […] at a dose volume of 1 mL/kg body weight (for a dosing concentration of 100 mg/kg).
# All animals were administered Taxol, 2 mg/kg, IP at a dose volume of 1 mL/kg, on Days 1, 3, 5 and 7.
# On Day 32, all animals received a single intraperitoneal injection of test article or vehicle according to Tables 1 and 2. For group 1 (vehicle), rats were pre-treated with Piperonyl butoxide (150 mg/kg IP, dose volume of 1 mL/kg) at 30 minutes and again at 10 minutes prior to vehicle administration. Four animals in group 3 (NTP-2024) were also pre-treated with Piperonyl butoxide (150 mg/kg IP, dose volume of 1 mL/kg) at 30 minutes and again at 10 minutes prior to vehicle administration. Animals in Groups 2, 3, 4, & 5 were pre-treated with Saline (dose volume of 1 mL/kg, IP) at 30 minutes and again at 10 minutes prior to test article administration. With the exception of animals in group 2, the animals received an IP injection of vehicle or test article 30 min prior to mechanical allodynia testing. Animals were dosed at a volume of 10 mL/kg.
# Animals in group 2, received an IP injection of Gabapentin 90 minutes prior to mechanical allodynia testing. Animals were dosed at a volume of 1 mL/kg.
# All animals underwent von Frey testing for mechanical allodynia. On testing days, the animals were returned to the chambers and allowed approximately 15 minutes to explore their surroundings prior to testing. A series of filaments were applied to the left hind paw. A 2.0 g filament was first applied to the plantar surface, if the animal responded to the filament (by lifting its paw) then the next smaller filament was applied. […] This is repeated in an “Up down” method for four responses after the first initial change in response.
# The original study design used thermal hyperalgesia as the main parameter for testing the ability of the test compounds to ameliorate the pain associated with the Taxol injection. The treatment inclusion was set at a 20% drop from baseline values as determined on Day 28. […] The study design was amended to use mechanical allodynia as the testing parameter. […] This changed the testing days from Day 28 to Day 31 for allodynia confirmation and Day 29 to Day 32 for testing the article efficacy. Additional animals were received to complete the group size designation. These animals were tested for mechanical allodynia only. The study was then further amended to remove the piperonyl butoxide as a pre-treatment for Group 3 (NTP-2024). […] Because this study was conducted in two portions, four (4) animals from Group 3 received the metabolic inhibitor and five (5) received Saline as a pre-treatment.
# The group mean results were analyzed versus the vehicle control group using a two way ANOVA, followed by a Bonferroni post-hoc test. Individual groups were tested pre and post dose using a paired t-test.
# Male CD-1 mice [2] = experiment: Chung (SNL) neuropathic pain study in mice; type: in vivo, mouse; details: high dose group (180 mg/kg NTP-2014; 100 mg/kg NTP-2026; gabapentin 100 mg/kg, i.p.)
structure (smiles),measurement,setting,value
"NCC1(CC(=O)O)CCCCC1 [Gabapentin, reference compound]",Licking Score % Pain Decrease,Male Rj: NMRI mice; gabapentin 100 mg/kg (584 μmol/kg),63%
same,Licking Score (15 to 50 minutes post-formalin injection) % Change from Control,Male Rj: NMRI mice; gabapentin 100 mg/kg i.p. (584 μmol/kg),−63%
same,Reversal of tactile hypersensitivity,Male CD-1 mice [1],dose-dependent activity
same,Reversal of mechanical allodynia,male Sprague Dawley rats,able to mitigate the mechanical allodynia; also recorded: significantly reverse
same,Sedation,Male CD-1 mice [2],minor sedation and incoordination
